Experimental data taken from ChEMBL document CHEMBL1135738, “Synthesis of novel cationic lipids: effect of structural modification on the efficiency of gene transfer” (J Med Chem, 2002).
pIC50: −log10 of the molar value.

test system: V79; test: Cytotoxic effect of compound was measured in lipid V79cell formulation.; type: functional, cell-based; details: Cricetulus griseus

SMILES | pIC50
CCCCCCCCCCCCOCC(CN)OCCCCCCCCCCCC (stereo not given) | 4.12
CCCCCCCCCCCCCCCCCCOCC(CN)OCCCCCCCCCCCC (stereo not given) | 4.12
CCCCCCCCCCCCCCCCCCOCC(CN)OCCCCCCCCCCCCCCCCCC (stereo not given) | 4.17
CCCCCCCCCCCCOCC(CNC(=O)[C@@H](N)CCCCN)OCCCCCCCCCCCC (stereo not given in full) | 4.47
CCCCCCCCCCCCOCC(CNC(=O)[C@@H](N)CCCN=C(N)N)OCCCCCCCCCCCC (stereo not given in full) | 4.70
